Legend:
[1] = target: T1, 5-hydroxytryptamine (serotonin) receptor 2B (5-HT2B) (Homo sapiens, UniProt P41595); assay: Off-target screening (Eurofins Cerep), 5-HT2B; type: binding; conditions: reference compound, format H, Ag
T1 construct: Eurofins Cerep SA (contract screening)
From the text: (§1) Off-target interactions are binding of tracers to other components on the cell surface than the actual target site. These non-specific interactions are often of low affinity and easily missed, but can have significant effects. We outsourced the screening for in vitro for off-target interactions of cRGD-ZW800-1 to Eurofins Cerep SA, Le bois l’Evêque, France. They assessed the percentage of inhibition of a reference compound in 44 selected targets, including G protein-coupled receptors (GPCRs), transporters, ion channels, nuclear receptors, kinases and other non-kinase enzymes. These targets were recommended by four major pharmaceutical companies. The complete list is included in Supplementary Table 1 of the Supplementary Data. Each assay was performed twice using 10 μM cRGD-ZW800-1 and a reference compound. Inhibition higher than 50% was considered to represent a significant effect of cRGD-ZW800-1. Results showing between 20% and 50% were considered weak to moderate effects, while lower than 20% was not considered significant and mostly attributable to variability of the signal around the control level.

[2] = human, in vivo, iv; cited from earlier work
From the text: Besides interacting with extracellular matrix proteins, integrin αvβ3 can also modulate intracellular pathways essential for COX-2 expression. The inhibition of COX-2 as shown in the in vitro off-target screening may be the result of binding cRGD-ZW800-1 to integrin αvβ3.

[3] = tested on: Na+ channel (site 2); assay: Off-target screening (Eurofins Cerep), Na+ channel; type: binding; conditions: reference compound, format An
From the text: as §1

[4] = tested on: GABA channels BZD (central); assay: Off-target screening (Eurofins Cerep), BZD (central); type: binding; conditions: reference compound, format Ag
From the text: as §1

[5] = tested on: KV channel; assay: Off-target screening (Eurofins Cerep), KV channel; type: binding; conditions: reference compound, format An
From the text: as §1

[6] = target: T2, Adrenergic α1A (Homo sapiens, UniProt P35348); assay: Off-target screening (Eurofins Cerep), α1A; type: binding; conditions: reference compound, format H, An
T2 construct: Eurofins Cerep SA (contract screening)
T2 sequence (P35348 1-466): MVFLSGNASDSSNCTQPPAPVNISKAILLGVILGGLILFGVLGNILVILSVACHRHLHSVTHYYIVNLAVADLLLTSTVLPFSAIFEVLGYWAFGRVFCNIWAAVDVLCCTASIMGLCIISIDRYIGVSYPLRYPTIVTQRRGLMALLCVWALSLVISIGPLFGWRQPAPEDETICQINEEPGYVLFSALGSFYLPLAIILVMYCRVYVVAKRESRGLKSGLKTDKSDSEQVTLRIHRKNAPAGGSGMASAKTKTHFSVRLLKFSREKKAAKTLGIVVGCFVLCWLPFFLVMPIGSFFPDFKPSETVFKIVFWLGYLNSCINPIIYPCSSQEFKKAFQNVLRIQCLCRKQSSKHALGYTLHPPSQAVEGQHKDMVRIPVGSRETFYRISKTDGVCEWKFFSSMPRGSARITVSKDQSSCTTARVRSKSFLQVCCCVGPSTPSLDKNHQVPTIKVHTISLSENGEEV
From the text: as §1

T1 sequence (P41595 whole entry): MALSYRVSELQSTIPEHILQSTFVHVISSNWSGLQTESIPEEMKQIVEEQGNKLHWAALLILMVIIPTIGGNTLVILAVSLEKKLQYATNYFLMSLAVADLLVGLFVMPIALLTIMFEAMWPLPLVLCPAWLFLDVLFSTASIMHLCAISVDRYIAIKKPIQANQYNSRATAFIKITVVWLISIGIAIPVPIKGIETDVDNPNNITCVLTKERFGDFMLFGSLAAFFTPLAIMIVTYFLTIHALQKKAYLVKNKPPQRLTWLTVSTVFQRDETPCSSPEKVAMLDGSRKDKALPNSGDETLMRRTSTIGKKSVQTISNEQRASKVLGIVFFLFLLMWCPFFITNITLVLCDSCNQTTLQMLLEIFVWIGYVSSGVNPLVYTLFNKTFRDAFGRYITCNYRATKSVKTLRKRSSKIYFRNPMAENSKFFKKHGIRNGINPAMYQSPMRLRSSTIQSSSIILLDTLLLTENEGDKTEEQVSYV

Molecule: COc1cc(CC(C)N)c(OC)cc1I (racemic) [(±)DOI, reference compound]
- IC50 [1]: 4 nM

Molecule: cilengitide
- side effects [2]: without serious side effects

Molecule: COc1ccc(C(=O)O[C@H]2CC[C@@]3(C)[C@@H]4CC[C@H]5[C@]6(O)C[C@H](O)[C@@]7(O)[C@@H](CN8C[C@@H](C)CC[C@H]8[C@@]7(C)O)[C@]6(O)C[C@@]53O[C@]24O)cc1OC [Veratridine, reference compound]
- IC50 [3]: 6800 nM

Molecule: CN1C(=O)CN=C(c2ccccc2)c2cc(Cl)ccc21 [Diazepam, reference compound]
- IC50 [4]: 12 nM

Molecule: Alpha -dendrotoxin [reference compound]
- IC50 [5]: 0.23 nM

Molecule: COc1cccc(OC)c1OCCNCC1COc2ccccc2O1 (stereo not drawn) [WB 4101, reference compound]
- IC50 [6]: 0.46 nM
